Common to all, as to format: in vivo
One series deals with Setaria viridis. In words: Test Example 5: herbicidal effect by foliage application, plastic box (symbol G). The settings on record: 320 g/ha, 3 weeks after application. The essentials: (§1)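 Leaf-applied emulsion, water-diluted to a preset herbicide dose, on two-week-old seedlings raised in a 25° C. to 30° C. greenhouse; injury rated at 3 weeks using earlier criteria.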
The test system of series [1] is Chenopodium album. Nature of the series: Test Example 4: herbicidal effect by soil treatment (symbol O). The settings on record: application herbicide amount 320 g/ha. The gist of the method:
(§2)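 Seeds were sown in sterilized diluvial soil, covered with about 1.5 cm of soil, and the soil surface was sprayed with a water-diluted emulsion of the compound at a predetermined rate. Plants grew in a greenhouse at 25° C. to 30° C.; effects were scored visually 3 weeks after application.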

For series [2], the system named is Avena fatua. In words: Test Example 5: herbicidal effect by foliage application, plastic box (symbol I). The settings on record: 320 g/ha, 3 weeks after application. The essentials: as §1
Series [3] deals with Avena fatua. In words: Test Example 4: herbicidal effect by soil treatment (symbol I). The settings on record: application herbicide amount 320 g/ha. The essentials:
as §2

The test system of series [4] is Chenopodium album. In words: Test Example 5: herbicidal effect by foliage application, plastic box (symbol O). The settings on record: 320 g/ha, 3 weeks after application. The gist of the method:
as §1

Series [5] has as its system Veronica persica. Nature of the series: Test Example 5: herbicidal effect by foliage application, plastic box (symbol R). The settings on record: 320 g/ha, 3 weeks after application. The gist of the method:
as §1

In series [6] the test system is Echinochloa crus-galli var. crus-galli. Nature of the series: Test Example 4: herbicidal effect by soil treatment (symbol H). The settings on record: application herbicide amount 320 g/ha. The gist of the method:
as §2

For a further series, the system named is transplanted rice plant. Nature of the series: Test Example 1: effect on crop, application before weed generation in submerged conditions (symbol a). The settings on record: application herbicide amount 320 g/ha. The gist of the method:
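Rice at 2.5 leaf stage transplanted into submerged soil (4 cm depth) sown with three weed species; herbicide applied before weed emergence.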

The subject of series [7] is Veronica persica. In words: Test Example 4: herbicidal effect by soil treatment (symbol R). The settings on record: application herbicide amount 320 g/ha. The gist of the method: as §2
Series [8] has as its system Echinochloa oryzacola Vasing. In words: Test Example 2: herbicidal activity, application during weed generation in submerged conditions (symbol A). The settings on record: Table 23; application herbicide amount 320 g/ha; grade 0-5 by criteria of Test Example 1. The essentials: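 Treatment timing was the one- to two-leaf stage, with diluted emulsifiable compound dropped onto the paddy water (depth 4 cm) over alluvial soil. All three species grew from a mixed sowing in a 25° C. to 30° C. greenhouse. Injury was judged by eye 3 weeks on.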

The subject of another series is Digitaria ciliaris. Nature of the series: Test Example 4: herbicidal effect by soil treatment (symbol F). The settings on record: application herbicide amount 320 g/ha. The gist of the method:
as §2

In a further series the test system is Lolium multiflorum Lam. Nature of the series: Test Example 4: herbicidal effect by soil treatment (symbol K). The settings on record: application herbicide amount 320 g/ha. The gist of the method: as §2
In the next series the test system is corn. Nature of the series: Test Example 5: effect on crop by foliage application, plastic box (symbol c). The settings on record: 320 g/ha, 3 weeks after application. The essentials: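 Plants were raised from seed in a greenhouse (25° C. to 30° C.) after sowing in a plastic box of sterilized diluvial soil.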
A further series concerns Leptochloa chinensis. Nature of the series: Test Example 3: herbicidal effect by foliage application, Wagner pot (symbol D). The settings on record: application herbicide amount 320 g/ha. The essentials: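 The compound, formulated as an emulsion and diluted with water to a predetermined rate, is applied uniformly to leaves of two-week-old seedlings growing in submerged alluvial soil at 25–30 °C. Rice is included. Each plant is assessed 3 weeks later using defined criteria.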

With `COc1cc(Br)cc(C)c1C1=C(O)CC(CC(C)=O)C1=O` (stereo not shown) [7-027, 2-(4-bromo-2-methoxy-6-methylphenyl)-3-hydroxy-5-(2-oxopropyl)cyclopent-2-enone], in the series on Setaria viridis, the “G: Setaria viridis, herbicidal effect (criteria of Test Example 1)” value is 5 (Herbicidal ratio of 90% or more (almost completely withered)). Also, in the series on Chenopodium album [1], the “Herbicidal effect grade, O: Chenopodium album” value is reported as 0 (Herbicidal ratio of 5% or lower (almost no effect)). The “I: Avena fatua, herbicidal effect (criteria of Test Example 1)” value in the series with Avena fatua [2] is 5 (Herbicidal ratio of 90% or more (almost completely withered)). The “Herbicidal effect grade, I: Avena fatua” value with Avena fatua [3] is 0 (Herbicidal ratio of 5% or lower (almost no effect)). For the same compound, the “O: Chenopodium album, herbicidal effect (criteria of Test Example 1)” value with Chenopodium album [4] was 0 (Herbicidal ratio of 5% or lower (almost no effect)). Besides, in the series on Veronica persica [5], the “R: Veronica persica, herbicidal effect (criteria of Test Example 1)” value is 0 (Herbicidal ratio of 5% or lower (almost no effect)). In addition, the “Herbicidal effect grade, H: Echinochloa crus-galli var. crus-galli” value in [6] was 5 (Herbicidal ratio of 90% or more (almost completely withered)). Also, in the series on transplanted rice plant, the “Effect grade on crop, a: transplanted rice plant” value is 3 (Herbicidal ratio of 40% or higher and lower than 70%). The “Herbicidal effect grade, R: Veronica persica” value with Veronica persica [7] is listed as 0 (Herbicidal ratio of 5% or lower (almost no effect)). In [8], the “Herbicidal effect grade, A: Echinochloa oryzacola Vasing.” value was 3 (Herbicidal ratio of 40% or higher and lower than 70%). Moreover, the “Herbicidal effect grade, F: Digitaria ciliaris” value with Digitaria ciliaris is 5 (Herbicidal ratio of 90% or more (almost completely withered)). Besides, the “Herbicidal effect grade, K: Lolium multiflorum Lam.” value in the series with Lolium multiflorum Lam. is 5 (Herbicidal ratio of 90% or more (almost completely withered)). In the series with corn, the “c: corn, effect on crop (criteria of Test Example 1)” value is reported as 5 (Herbicidal ratio of 90% or more (almost completely withered)). For the same compound, in the series with Leptochloa chinensis (Table 24), the “D (Leptochloa chinensis) herbicidal effect grade” value was 5 (Herbicidal ratio of 90% or more (almost completely withered)).
For `CON=C(C)CC1CC(O)=C(c2c(C)cc(-n3cncn3)cc2C)C1=O` (stereo not shown) [6-074], the “G: Setaria viridis, herbicidal effect (criteria of Test Example 1)” value in the series with Setaria viridis is 4 (Herbicidal ratio of 70% or higher and lower than 90%). The “O: Chenopodium album, herbicidal effect grade” value in the series with Chenopodium album [1] was 0 (Herbicidal ratio of 5% or lower (almost no effect)). In addition, in the series on Avena fatua [2], the “I: Avena fatua, herbicidal effect (criteria of Test Example 1)” value is 1 (Herbicidal ratio of 5% or higher and lower than 20%). In addition, the “I: Avena fatua, herbicidal effect grade” value in the series on Avena fatua [3] is given as 0 (Herbicidal ratio of 5% or lower (almost no effect)). For the same compound, the “O: Chenopodium album, herbicidal effect (criteria of Test Example 1)” value in the series with Chenopodium album [4] was 0 (Herbicidal ratio of 5% or lower (almost no effect)). For the same compound, the “R: Veronica persica, herbicidal effect (criteria of Test Example 1)” value with Veronica persica [5] is reported as 0 (Herbicidal ratio of 5% or lower (almost no effect)). Moreover, in [6], the “H: Echinochloa crus-galli var. crus-galli, herbicidal effect grade” value is listed as 0 (Herbicidal ratio of 5% or lower (almost no effect)). The “Effect grade on crop, a: transplanted rice plant” value in the series on transplanted rice plant is 2 (Herbicidal ratio of 20% or higher and lower than 40%). The “R: Veronica persica, herbicidal effect grade” value with Veronica persica [7] is 0 (Herbicidal ratio of 5% or lower (almost no effect)). Also, the “Herbicidal effect grade, A: Echinochloa oryzacola Vasing.” value in series [8] is 1 (Herbicidal ratio of 5% or higher and lower than 20%). Also, the “F: Digitaria ciliaris, herbicidal effect grade” value with Digitaria ciliaris is 0 (Herbicidal ratio of 5% or lower (almost no effect)). The “K: Lolium multiflorum Lam., herbicidal effect grade” value with Lolium multiflorum Lam. is listed as 0 (Herbicidal ratio of 5% or lower (almost no effect)). For the same compound, the “c: corn, effect on crop (criteria of Test Example 1)” value with corn is 0 (Herbicidal ratio of 5% or lower (almost no effect)). In addition, the “herbicidal effect on D (Leptochloa chinensis), grade 0-5” value with Leptochloa chinensis is recorded as 5 (Herbicidal ratio of 90% or more (almost completely withered)).
